Test: xn = mol fraction of the nth substance listed
Details: 101 kPa, Liquid; for viscosity: Capillary tube (Ostwald / Ubbelohde) method

CN(C)C=O [dimethylformamide] + O
Details | mass density [kg/m3] | viscosity [mPa·s]
283.15 K, x1 = 0.02 | 1000.31 | –
283.15 K, x1 = 0.04 | 1001.42 | –
283.15 K, x1 = 0.06 | 1002.8 | –
283.15 K, x1 = 0.08 | 1004.13 | –
283.15 K, x1 = 0.1 | 1005.32 | –
283.15 K, x1 = 0.2 | 1007.64 | –
283.15 K, x1 = 0.3 | 1004.4 | –
283.15 K, x1 = 0.398 | 997.83 | –
283.15 K, x1 = 0.498 | 990.56 | –
283.15 K, x1 = 0.599 | 983.02 | –
283.15 K, x1 = 0.697 | 976.07 | –
283.15 K, x1 = 0.798 | 969.84 | –
283.15 K, x1 = 1 | 958.96 | –
288.15 K, x1 = 0.02 | 999.23 | –
288.15 K, x1 = 0.04 | 999.91 | –
288.15 K, x1 = 0.06 | 1000.87 | –
288.15 K, x1 = 0.08 | 1001.82 | –
288.15 K, x1 = 0.1 | 1002.67 | –
288.15 K, x1 = 0.2 | 1003.86 | –
288.15 K, x1 = 0.3 | 1000.1 | –
288.15 K, x1 = 0.398 | 993.31 | –
288.15 K, x1 = 0.498 | 985.94 | –
288.15 K, x1 = 0.599 | 978.36 | –
288.15 K, x1 = 0.697 | 971.37 | –
288.15 K, x1 = 0.798 | 965.11 | –
288.15 K, x1 = 1 | 954.17 | –
293.15 K, x1 = 0.02 | 997.92 | 1.234
293.15 K, x1 = 0.04 | 998.2 | 1.442
293.15 K, x1 = 0.06 | 998.77 | 1.656
293.15 K, x1 = 0.08 | 999.37 | 1.847
293.15 K, x1 = 0.1 | 999.9 | 2.062
293.15 K, x1 = 0.2 | 1000.01 | 2.782
293.15 K, x1 = 0.3 | 995.76 | 2.954
293.15 K, x1 = 0.398 | 988.76 | 2.622
293.15 K, x1 = 0.498 | 981.3 | 2.162
293.15 K, x1 = 0.599 | 973.67 | 1.713
293.15 K, x1 = 0.697 | 966.65 | 1.377
293.15 K, x1 = 0.798 | 960.37 | 1.153
293.15 K, x1 = 1 | 949.39 | 0.864
298.15 K, x1 = 0.02 | 996.39 | –
298.15 K, x1 = 0.04 | 996.31 | –
298.15 K, x1 = 0.06 | 996.53 | –
298.15 K, x1 = 0.08 | 996.8 | –
298.15 K, x1 = 0.1 | 997.03 | –
298.15 K, x1 = 0.2 | 996.13 | –
298.15 K, x1 = 0.3 | 991.4 | –
298.15 K, x1 = 0.398 | 984.18 | –
298.15 K, x1 = 0.498 | 976.64 | –
298.15 K, x1 = 0.599 | 968.96 | –
298.15 K, x1 = 0.697 | 961.92 | –
298.15 K, x1 = 0.798 | 955.63 | –
298.15 K, x1 = 1 | 944.6 | –
303.15 K, x1 = 0.02 | 994.67 | 0.97
303.15 K, x1 = 0.04 | 994.25 | 1.114
303.15 K, x1 = 0.06 | 994.14 | 1.269
303.15 K, x1 = 0.08 | 994.11 | 1.407
303.15 K, x1 = 0.1 | 994.05 | 1.55
303.15 K, x1 = 0.2 | 992.19 | 2.051
303.15 K, x1 = 0.3 | 986.99 | 2.179
303.15 K, x1 = 0.398 | 979.57 | 1.979
303.15 K, x1 = 0.498 | 971.95 | 1.675
303.15 K, x1 = 0.599 | 964.24 | 1.382
303.15 K, x1 = 0.697 | 957.18 | 1.149
303.15 K, x1 = 0.798 | 950.87 | 0.985
303.15 K, x1 = 1 | 939.83 | 0.766
308.15 K, x1 = 0.02 | 992.74 | –
308.15 K, x1 = 0.04 | 992.03 | –
308.15 K, x1 = 0.06 | 991.61 | –
308.15 K, x1 = 0.08 | 991.29 | –
308.15 K, x1 = 0.1 | 990.98 | –
308.15 K, x1 = 0.2 | 988.2 | –
308.15 K, x1 = 0.3 | 982.55 | –
308.15 K, x1 = 0.398 | 974.94 | –
308.15 K, x1 = 0.498 | 967.24 | –
308.15 K, x1 = 0.599 | 959.49 | –
308.15 K, x1 = 0.697 | 952.42 | –
308.15 K, x1 = 0.798 | 946.1 | –
308.15 K, x1 = 1 | 935.05 | –
313.15 K, x1 = 0.02 | 990.67 | 0.783
313.15 K, x1 = 0.04 | 989.66 | 0.891
313.15 K, x1 = 0.06 | 988.95 | 1.003
313.15 K, x1 = 0.08 | 988.37 | 1.103
313.15 K, x1 = 0.1 | 987.8 | 1.208
313.15 K, x1 = 0.2 | 984.15 | 1.564
313.15 K, x1 = 0.3 | 978.07 | 1.66
313.15 K, x1 = 0.398 | 970.26 | 1.538
313.15 K, x1 = 0.498 | 962.5 | 1.337
313.15 K, x1 = 0.599 | 954.73 | 1.14
313.15 K, x1 = 0.697 | 947.64 | 0.971
313.15 K, x1 = 0.798 | 941.33 | 0.847
313.15 K, x1 = 1 | 930.27 | 0.684
318.15 K, x1 = 0.02 | 988.43 | –
318.15 K, x1 = 0.04 | 987.14 | –
318.15 K, x1 = 0.06 | 986.17 | –
318.15 K, x1 = 0.08 | 985.33 | –
318.15 K, x1 = 0.1 | 984.53 | –
318.15 K, x1 = 0.2 | 980.05 | –
318.15 K, x1 = 0.3 | 973.55 | –
318.15 K, x1 = 0.398 | 965.56 | –
318.15 K, x1 = 0.498 | 957.73 | –
318.15 K, x1 = 0.599 | 949.93 | –
318.15 K, x1 = 0.697 | 942.85 | –
318.15 K, x1 = 0.798 | 936.53 | –
318.15 K, x1 = 1 | 925.49 | –
323.15 K, x1 = 0.02 | 986 | 0.648
323.15 K, x1 = 0.04 | 984.49 | 0.729
323.15 K, x1 = 0.06 | 983.26 | 0.812
323.15 K, x1 = 0.08 | 982.19 | 0.892
323.15 K, x1 = 0.1 | 981.17 | 0.965
323.15 K, x1 = 0.2 | 975.89 | 1.228
323.15 K, x1 = 0.3 | 968.99 | 1.3
323.15 K, x1 = 0.398 | 960.81 | 1.228
323.15 K, x1 = 0.498 | 952.92 | 1.087
323.15 K, x1 = 0.599 | 945.11 | 0.961
323.15 K, x1 = 0.697 | 938.03 | 0.831
323.15 K, x1 = 0.798 | 931.73 | 0.74
323.15 K, x1 = 1 | 920.71 | 0.617
328.15 K, x1 = 0.02 | 983.51 | –
328.15 K, x1 = 0.04 | 981.71 | –
328.15 K, x1 = 0.06 | 980.24 | –
328.15 K, x1 = 0.08 | 978.94 | –
328.15 K, x1 = 0.1 | 977.71 | –
328.15 K, x1 = 0.2 | 971.68 | –
328.15 K, x1 = 0.3 | 964.38 | –
328.15 K, x1 = 0.398 | 956.04 | –
328.15 K, x1 = 0.498 | 948.09 | –
328.15 K, x1 = 0.599 | 940.27 | –
328.15 K, x1 = 0.697 | 933.2 | –
328.15 K, x1 = 0.798 | 926.91 | –
328.15 K, x1 = 1 | 915.92 | –
333.15 K, x1 = 0.02 | 980.84 | 0.548
333.15 K, x1 = 0.04 | 978.81 | 0.613
333.15 K, x1 = 0.06 | 977.1 | 0.675
333.15 K, x1 = 0.08 | 975.59 | 0.736
333.15 K, x1 = 0.1 | 974.16 | 0.792
333.15 K, x1 = 0.2 | 967.4 | 0.992
333.15 K, x1 = 0.3 | 959.73 | 1.046
333.15 K, x1 = 0.398 | 951.22 | 1.001
333.15 K, x1 = 0.498 | 943.22 | 0.905
333.15 K, x1 = 0.599 | 935.4 | 0.81
333.15 K, x1 = 0.697 | 928.34 | 0.722
333.15 K, x1 = 0.798 | 922.08 | 0.654
333.15 K, x1 = 1 | 911.13 | 0.559
338.15 K, x1 = 0.02 | 978.04 | –
338.15 K, x1 = 0.04 | 975.81 | –
338.15 K, x1 = 0.06 | 973.86 | –
338.15 K, x1 = 0.08 | 972.14 | –
338.15 K, x1 = 0.1 | 970.51 | –
338.15 K, x1 = 0.2 | 963.07 | –
338.15 K, x1 = 0.3 | 955.03 | –
338.15 K, x1 = 0.398 | 946.36 | –
338.15 K, x1 = 0.498 | 938.32 | –
338.15 K, x1 = 0.599 | 930.49 | –
338.15 K, x1 = 0.697 | 923.46 | –
338.15 K, x1 = 0.798 | 917.22 | –
338.15 K, x1 = 1 | 906.32 | –
343.15 K, x1 = 0.02 | 975.12 | 0.474
343.15 K, x1 = 0.04 | 972.66 | 0.526
343.15 K, x1 = 0.06 | 970.5 | 0.575
343.15 K, x1 = 0.08 | 968.59 | 0.624
343.15 K, x1 = 0.1 | 966.78 | 0.666
343.15 K, x1 = 0.2 | 958.67 | 0.821
343.15 K, x1 = 0.3 | 950.29 | 0.866
343.15 K, x1 = 0.398 | 941.46 | 0.837
343.15 K, x1 = 0.498 | 933.38 | 0.764
343.15 K, x1 = 0.599 | 925.56 | 0.701
343.15 K, x1 = 0.697 | 918.55 | 0.636
343.15 K, x1 = 0.798 | 912.34 | 0.583
343.15 K, x1 = 1 | 901.51 | 0.51
348.15 K, x1 = 0.02 | 972.14 | –
348.15 K, x1 = 0.04 | 969.42 | –
348.15 K, x1 = 0.06 | 967.1 | –
348.15 K, x1 = 0.08 | 964.94 | –
348.15 K, x1 = 0.1 | 962.96 | –
348.15 K, x1 = 0.2 | 954.21 | –
348.15 K, x1 = 0.3 | 945.49 | –
348.15 K, x1 = 0.398 | 936.52 | –
348.15 K, x1 = 0.498 | 928.4 | –
348.15 K, x1 = 0.599 | 920.59 | –
348.15 K, x1 = 0.697 | 913.61 | –
348.15 K, x1 = 0.798 | 907.45 | –
348.15 K, x1 = 1 | 896.69 | –
353.15 K, x1 = 0.02 | 968.96 | 0.417
353.15 K, x1 = 0.04 | 966.06 | 0.459
353.15 K, x1 = 0.06 | 963.53 | 0.499
353.15 K, x1 = 0.08 | 961.2 | 0.539
353.15 K, x1 = 0.1 | 959.05 | 0.572
353.15 K, x1 = 0.2 | 949.69 | 0.694
353.15 K, x1 = 0.3 | 940.64 | 0.727
353.15 K, x1 = 0.398 | 931.54 | 0.707
353.15 K, x1 = 0.498 | 923.39 | 0.659
353.15 K, x1 = 0.599 | 915.59 | 0.614
353.15 K, x1 = 0.697 | 908.64 | 0.563
353.15 K, x1 = 0.798 | 902.52 | 0.525
353.15 K, x1 = 1 | 891.86 | 0.47

Source: the NIST ThermoML archive (doi:10.1021/je700671t)
